# Results reported in patent US7879858B2, “Substituted tetrahydropyrrolopyrazine compounds and the use thereof in pharmaceutical compositions” (Gruenenthal GmbH, priority 2006, dated 2011).
# Legend:
# [1] = system: NA reuptake; experiment: Inhibition of NA (noradrenaline) uptake in rat hypothalamus synaptosomes; assay type: biochemical; conditions: synaptosomes from hypothalamus of male rat brains
# Protocol: (§1) Biological Data Inhibition of NA and 5HT Uptake
# (§2) In order to be able to carry out these in vitro studies, synaptosomes are freshly isolated from areas of the rat brain. In each case a so-called “P2” fraction prepared in accordance with the instructions of Gray and Whittaker (E. G. Gray and V. P. Whittaker (1962) J. Anat. 76, 79-88) is prepared. For the NA uptake, these vesicular particles are isolated from the hypothalamus of male rat brains. A detailed description of the method can be found in the literature (M. Ch. Frink, H.-H. Hennies, W. Englberger, M. Haurand and B. Wilffert (1996) Arzneim.-Forsch./Drug Res. 46 (III), 11, 1029-1036).
# [2] = target: T1, Serotonin reuptake (Rattus norvegicus, UniProt P31652); experiment: Inhibition of 5HT (serotonin) uptake in rat brain synaptosomes; assay type: biochemical; conditions: 10 μmol; synaptosomes from rat brain
# T1 construct: synaptosomes are freshly isolated from areas of the rat brain; from tissue; host or cells: rat brain synaptosomes (P2 fraction)
# Protocol: as §1, §2
# T1 sequence (P31652 whole entry): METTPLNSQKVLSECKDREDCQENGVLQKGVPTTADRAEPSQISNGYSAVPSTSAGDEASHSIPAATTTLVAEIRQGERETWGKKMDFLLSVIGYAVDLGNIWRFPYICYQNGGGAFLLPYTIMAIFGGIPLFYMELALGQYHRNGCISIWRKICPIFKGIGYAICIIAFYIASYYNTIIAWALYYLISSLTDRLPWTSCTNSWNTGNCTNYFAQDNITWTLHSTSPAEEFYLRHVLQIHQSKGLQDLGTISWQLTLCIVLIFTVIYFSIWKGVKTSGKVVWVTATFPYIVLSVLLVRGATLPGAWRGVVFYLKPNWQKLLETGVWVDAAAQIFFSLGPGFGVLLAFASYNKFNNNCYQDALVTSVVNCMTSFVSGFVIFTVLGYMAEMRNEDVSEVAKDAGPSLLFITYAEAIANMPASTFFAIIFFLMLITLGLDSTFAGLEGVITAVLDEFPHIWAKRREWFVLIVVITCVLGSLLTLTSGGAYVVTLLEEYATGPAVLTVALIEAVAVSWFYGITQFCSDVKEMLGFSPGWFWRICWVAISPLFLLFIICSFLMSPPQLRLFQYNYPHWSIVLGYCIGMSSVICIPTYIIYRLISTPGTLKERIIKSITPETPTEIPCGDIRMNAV
inhibition at 10 µM [2],Compound,NA reuptake % inhibition [10 μmol] [1]
32%,"O=C(C1CCCC1)N1CCn2cccc2C1c1ccccc1 (stereo not drawn) [Example 24, cyclopentyl(1-phenyl-3,4-dihydropyrrolo[1,2-a]pyrazin-2(1H)-yl)methanone]",44%
54%,"O=C(c1cccc(F)c1)N1CCn2cccc2C1c1ccccc1F (stereo not drawn) [Example 7, (3-fluoro-phenyl)-[1-(2-fluoro-phenyl)-3,4-dihydro-1H-pyrrolo[1,2-a]pyrazin-2-yl]-methanone]",36%
30%,"O=C(c1ccc2c(c1)OCO2)N1CCn2cccc2C1c1ccccc1F (stereo not drawn) [Example 9, benzo[d][1,3]dioxol-5-yl(1-(2-fluorophenyl)-3,4-dihydropyrrolo[1,2-a]pyrazin-2(1H)-yl)methanone]",27%
34%,"O=C(C1CC1)N1CCn2cccc2C1c1ccccc1F (stereo not drawn) [Example 6, cyclopropyl(1-(2-fluorophenyl)-3,4-dihydropyrrolo[1,2-a]pyrazin-2(1H)-yl)methanone]",13%
64%,"O=C(c1ccc2c(c1)OCO2)N1CCn2cccc2C1c1ccc(Cl)c(Cl)c1 (stereo not drawn) [Example 61, benzo[1,3]dioxol-5-yl-[1-(3,4-dichloro-phenyl)-3,4-dihydro-1H-pyrrolo[1,2-a]pyrazin-2-yl]-methanone]",68%
58%,"O=C(c1ccc(F)cc1)N1CCn2cccc2C1c1ccc2c(c1)OCCO2 (stereo not drawn) [Example 38, [1-(2,3-dihydro-benzo[1,4]dioxin-6-yl)-3,4-dihydro-1H-pyrrolo[1,2-a]pyrazin-2-yl]-(4-fluoro-phenyl)-methanone]",48%
50%,"Cc1ccccc1C1c2cccn2CCN1C(=O)C1CCCC1 (stereo not drawn) [Example 10, cyclopentyl-(1-o-tolyl-3,4-dihydro-1H-pyrrolo[1,2-a]pyrazin-2-yl)-methanone]",30%
37%,"Cc1ccccc1C(=O)N1CCn2cccc2C1c1cccc(Cl)c1 (stereo not drawn) [Example 41, (1-(3-chlorophenyl)-3,4-dihydropyrrolo[1,2-a]pyrazin-2(1H)-yl)(o-tolyl)methanone]",35%
38%,"Cc1ccccc1C(=O)N1CCn2cccc2C1c1ccc(F)cc1 (stereo not drawn) [Example 75, (1-(4-fluorophenyl)-3,4-dihydropyrrolo[1,2-a]pyrazin-2(1H)-yl)(o-tolyl)methanone]",17%
53%,"O=C(c1cccs1)N1CCn2cccc2C1c1cccc(Cl)c1 (stereo not drawn) [Example 45, [1-(3-chloro-phenyl)-3,4-dihydro-1H-pyrrolo[1,2-a]pyrazin-2-yl]-thiophen-2-yl-methanone]",43%
43%,"O=C(c1cccs1)N1CCn2cccc2C1c1ccc(Cl)c(Cl)c1 (stereo not drawn) [Example 65, (1-(3,4-Dichlorophenyl)-3,4-dihydropyrrolo[1,2-a]pyrazin-2(1H)-yl)(thiophen-2-yl)methanone]",49%
18%,"O=C(c1ccccc1F)N1CCn2cccc2C1c1ccccc1F (stereo not drawn) [Example 47, (2-fluorophenyl)(1-(2-fluorophenyl)-3,4-dihydropyrrolo[1,2-a]pyrazin-2(1H)-yl)methanone]",12%
